Experimental data taken from paper PMC7048787, “MCL1 binding to the reverse BH3 motif of P18INK4C couples cell survival to cell proliferation” (Cell Death & Disease, 2020).

Legend:
[1] = test system: MCL1 protein in PC3 and WAC2 cells; test: Western blot of MCL1 protein in treated cells; assay type: cell-based, human; details: PC3 or WAC2 cells, 4 h, 10 µM LeuP, 30 µM BTZ or 10 µM LeuP + 30 µM BTZ (Fig. 5), BTZ 10, 20 or 30 µM in PC-3 (Fig. S4), N = 3
Protocol: (§1) Whole-cell lysates were prepared by lysing cells on ice with 1× RIPA buffer (Boston BioProducts): 50 mM Tris-HCl pH 7.4, 150 mM NaCl, 1% NP40, 0.5% sodium deoxycholate and water (rest) supplemented with protease inhibitors (1 mM AEBSF, 0.8 μM aprotinin, 0.05 mM bestatin, 0.015 mM E-64, 0.02 mM leupeptin, 0.01 mM pepstatin A). Protein lysates were resolved by sodium dodecyl sulfate–polyacrylamide gel electrophoresis and transferred to polyvinylidene fluoride membrane in a wet transfer system for 1 h at 100 V. Membranes were incubated with anti-MCL1 Abs (D2W9E and D35A5, Cell Signaling), anti-BAX Abs (D2E11, Cell Signaling), anti-P18 Abs, DCS-118 from Cell Signaling, anti-β-actin Abs, PA1–21167, from Pierce (Rockford, IL, USA), and anti-CDK6 Ab, (C-21): sc-177 from Santa Cruz at a dilution of 1:1000, at 4 °C overnight. HRP-conjugated secondary Abs were used for detection using ECL2 reagent (Pierce). Immunoblots were visualized on Bio-Rad ChemiDoc MP imaging system.
Fig. 5 MCL1 impact on P18 degradation. […] Quantification of band intensity shown below blot. […] The statistical significance was determined by unpaired Student t-test where […].
Figure S4. […] Quantification of band intensity shown below blot. […] The statistical significance was determined by unpaired Student t-test where *P<0.05; **P<0.01; ***P<0.001.

[2] = test system: P18 protein in PC3 and WAC2 cells; test: Western blot of P18 protein in treated cells; assay type: cell-based, human; details: for P18 protein level: Western blot, PC3 or WAC2 cells, 4 h, 10 µM LeuP, 30 µM BTZ or 10 µM LeuP + 30 µM BTZ (Fig. 5), BTZ 10, 20 or 30 µM in PC-3 (Fig. S4), N = 3
Protocol: as §1
Fig. 5 MCL1 impact on P18 degradation. Western blot of DMSO control (0.3%), 10 µM leupeptin (LeuP), 10 µM LeuP + 30µM bortezomib (BTZ), or 30 µM BTZ treated (a) PC3 cells or (b) WAC2 cells for 4 h. Quantification of band intensity shown below blot. All data are presented as mean ± S.D., N = 3. The statistical significance was determined by unpaired Student t-test where […].
Figure S4. Bortezomib inversely impacts MCL1 and P18. Western blot of bortezomib treated PC-3 cells (10, 20, or 30 uM) for 4 hours. Quantification of band intensity shown below blot. All data are presented as mean ± S.D., N=3. The statistical significance was determined by unpaired Student t-test where *P<0.05; **P<0.01; ***P<0.001.

[3] = target: T1, P18 protein (human P18INK4C residues 1-168), recombinant (human, UniProt P42773 1-168); test: pull-down; in vitro pulldown of recombinant P18, P16, truncated and chimeric proteins (IP) with recombinant MCL1 (IB); details: both partners purified
T1 construct: Human P18 (P18INK4C, CDKN2C), residues 1-168, called full-length P18 protein in the results; The purification of this protein is not described; only that of His6-MCL1 is; also called CDKN2C; full-length P18 protein; source: E. coli BL21(DE3), recombinant
T1 sequence (looked up): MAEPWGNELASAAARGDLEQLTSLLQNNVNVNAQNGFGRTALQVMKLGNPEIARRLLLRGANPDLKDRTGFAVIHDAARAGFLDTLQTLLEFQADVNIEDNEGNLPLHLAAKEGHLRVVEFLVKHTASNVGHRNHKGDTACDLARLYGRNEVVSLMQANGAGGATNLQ

## CC(=O)N[C@@H](CC(C)C)C(=O)N[C@@H](CC(C)C)C(=O)N[C@H](C=O)CCCNC(=N)N [leupeptin]
[1]
  MCL1 protein level: marginal to no impact
[2]
  P18 protein level: marginal to no impact

## CC(C)C[C@H](NC(=O)[C@H](Cc1ccccc1)NC(=O)c1cnccn1)B(O)O [bortezomib]
[1]
  MCL1 protein level: increase in MCL1 protein
[2]
  P18 protein level: decrease in P18 protein
[2]; proteasome inhibitor bortezomib, Fig. 5 and Fig. S4
  effect of bortezomib on MCL1-induced loss of P18 protein: does not rescue this effect

B1: His6-MCL1 (human MCL1 residues 163-326) (domain or fragment, UniProt Q07820 163-326, looked up)
chain: TPPPAEEEEDELYRQSLEIISRYLREQATGAKDTKPMGRSGATSRKALETLRRVGDGVQRNHETAFQGMLRKLDIKNEDDVKSLSRVMIHVFSDGVTNWGRIVTLISFGAFVAKHLKTINQESCIEPLAESITDVLVRTKRDWLVKQRGWDGFVEFFHVEDLEG
notes: Named His6-MCL1 in the FPA; called rMCL1 in the pull-downs; also called His-MCL1; recombinant MCL1; source: E. coli BL21(DE3), purified (nickel column, gel filtration); not shown: His6, N-terminal, kept
[3]
  binding result: binds
